Series [1] deals with T1, Cholecystokinin receptor type A (Cavia porcellus) (UniProt Q63931).
T1 sequence (whole entry): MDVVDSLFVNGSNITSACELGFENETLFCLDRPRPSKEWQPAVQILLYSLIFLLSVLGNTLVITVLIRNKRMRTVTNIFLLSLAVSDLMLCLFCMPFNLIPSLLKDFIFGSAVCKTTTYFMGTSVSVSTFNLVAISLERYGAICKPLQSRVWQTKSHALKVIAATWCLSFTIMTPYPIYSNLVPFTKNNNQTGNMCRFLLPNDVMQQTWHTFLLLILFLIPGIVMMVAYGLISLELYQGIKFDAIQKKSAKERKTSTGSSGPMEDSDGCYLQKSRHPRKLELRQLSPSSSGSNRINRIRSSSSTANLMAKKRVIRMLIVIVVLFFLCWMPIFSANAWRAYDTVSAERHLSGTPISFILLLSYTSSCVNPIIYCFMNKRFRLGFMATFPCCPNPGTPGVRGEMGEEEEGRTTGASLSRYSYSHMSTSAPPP
In words: Tested for selectivity toward Cholecystokinin type A receptor by guinea -pig isolated ileum longitudinal muscle-myenteric plexus (GPI) assay. The series is classed as tissue-based.

The target in series [2] is T2, Gastrin/cholecystokinin type B receptor (Rattus norvegicus) (UniProt P30553).
T2 sequence (whole entry): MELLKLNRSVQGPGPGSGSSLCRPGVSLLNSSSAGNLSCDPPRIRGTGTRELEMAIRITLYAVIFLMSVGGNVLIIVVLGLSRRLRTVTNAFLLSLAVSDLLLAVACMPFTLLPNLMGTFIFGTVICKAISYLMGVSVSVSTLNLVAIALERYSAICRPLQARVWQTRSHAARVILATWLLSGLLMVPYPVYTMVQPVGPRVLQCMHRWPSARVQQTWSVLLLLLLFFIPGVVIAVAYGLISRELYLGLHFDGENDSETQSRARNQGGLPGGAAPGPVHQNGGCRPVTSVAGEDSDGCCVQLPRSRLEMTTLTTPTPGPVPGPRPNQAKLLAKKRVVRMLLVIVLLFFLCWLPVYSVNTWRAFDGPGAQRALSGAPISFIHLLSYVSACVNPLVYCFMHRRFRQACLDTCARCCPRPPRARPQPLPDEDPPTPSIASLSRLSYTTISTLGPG
In words: Tested for selectivity toward gastrin receptor by the ability to block pentagastrin stimulated acid secretion from isolated rat gastric mucosa (RGM). The series is classed as tissue-based.

Series [3] is described as follows: Compound was tested for plasma clearance in rat. The series is classed as ADME, organism-based. The following applies: read-out: Clp.
Series [4] can be described thus: Oral bioavailability in rat. The series is classed as ADME, organism-based. The following applies: in vivo.
Series [5] concerns the target T3, Gastrin/cholecystokinin type B receptor (Homo sapiens, UniProt P32239).
T3 sequence (P32239 whole entry): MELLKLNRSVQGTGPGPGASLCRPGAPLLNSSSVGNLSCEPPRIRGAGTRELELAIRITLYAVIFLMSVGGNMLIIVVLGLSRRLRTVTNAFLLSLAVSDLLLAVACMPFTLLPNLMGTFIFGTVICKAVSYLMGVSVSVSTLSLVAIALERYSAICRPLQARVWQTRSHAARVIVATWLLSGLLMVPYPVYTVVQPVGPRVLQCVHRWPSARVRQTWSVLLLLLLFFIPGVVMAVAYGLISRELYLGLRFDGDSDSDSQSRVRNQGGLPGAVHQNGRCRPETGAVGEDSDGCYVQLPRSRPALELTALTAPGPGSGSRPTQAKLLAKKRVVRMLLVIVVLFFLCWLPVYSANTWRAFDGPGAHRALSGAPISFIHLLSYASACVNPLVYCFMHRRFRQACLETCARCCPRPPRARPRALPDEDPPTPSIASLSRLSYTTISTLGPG
Kind of series: Tested for its selectivity against human Cholecystokinin type B receptor isolated from a human temporal cortex cDNA library and stably transfected into a HeLa cell line. (n=1). The series is classed as cell-based.

The target of series [6] is T4, Cholecystokinin receptor type A (Homo sapiens, UniProt P32238).
T4 sequence (P32238 whole entry): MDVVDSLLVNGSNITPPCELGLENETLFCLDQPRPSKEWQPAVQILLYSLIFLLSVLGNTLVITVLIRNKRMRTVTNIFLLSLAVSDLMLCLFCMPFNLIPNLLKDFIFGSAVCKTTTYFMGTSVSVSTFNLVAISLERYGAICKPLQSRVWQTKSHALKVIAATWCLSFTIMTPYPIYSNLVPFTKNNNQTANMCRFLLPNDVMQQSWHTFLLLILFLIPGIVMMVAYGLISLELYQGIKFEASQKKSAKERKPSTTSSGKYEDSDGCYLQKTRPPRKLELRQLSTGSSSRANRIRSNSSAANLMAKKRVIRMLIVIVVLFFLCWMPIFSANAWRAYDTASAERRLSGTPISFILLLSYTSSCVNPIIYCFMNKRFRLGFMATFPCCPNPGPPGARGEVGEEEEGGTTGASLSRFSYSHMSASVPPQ
In words: Tested for its selectivity against human Cholecystokinin type A receptor isolated from a human gallbladder cDNA library and stably transfected into a COSM6 cell line; (n=1). The series is classed as cell-based.

The subject of series [7] is Rattus norvegicus. In words: Tested for its ability to inhibit acid secretion in the pentagastrin stimulated gastric fistula rat model by intravenous dose of 0.1 mg/kg. The series is classed as functional. The following applies: Stomach.
Series [8] relates to Rattus norvegicus. In words: Tested for its ability to inhibit acid secretion in the pentagastrin stimulated gastric fistula rat model by intra gastric dose of 1 mg/kg. The series is classed as functional. The following applies: Stomach.
Series [9] concerns the target T4, Cholecystokinin receptor type A. In words: Tested for its selectivity against human Cholecystokinin type A receptor isolated from a human gallbladder cDNA library and stably transfected into a COSM6 cell line (n=1). The series is classed as cell-based.
In series [10] the test system is Rattus norvegicus. Kind of series: Compound was tested for its ability to inhibit acid secretion in the pentagastrin stimulated gastric fistula rat model by intravenous dose of 1 mg/kg. The series is classed as functional. The following applies: Stomach.
Series [11] has as its system Rattus norvegicus. In words: Compound was tested for its ability to inhibit acid secretion in the pentagastrin stimulated gastric fistula rat model by intra gastric dose of 1 mg/kg. The series is classed as functional. The following applies: Stomach.
Series [12] concerns the target T2, Gastrin/cholecystokinin type B receptor (Rattus norvegicus). The following applies: Gastric mucosa.
Series [13] concerns Rattus norvegicus. Kind of series: Tested for its ability to inhibit acid secretion in the pentagastrin stimulated gastric fistula rat model by intravenous dose of 0.3 mg/kg. The following applies: Stomach. The series is classed as functional.
Series [14] concerns Rattus norvegicus. In words: Tested for its ability to inhibit acid secretion in the pentagastrin stimulated gastric fistula rat model by intra gastric dose of 0.3 mg/kg. The series is classed as functional. The following applies: Stomach.

For orientation: pKB means −log10 of the KB, conventionally taken in molar units. For the compound `O=C(Nc1cccc(C(=O)O)c1)NC1C(=O)N(CC(=O)N2CCCC2)c2ccccc2N(c2ccccc2)C1=O` (stereo unspecified), the pKB in series [1] worked out at 5.7; in series [2] it was 8.6.

Usually bioavailability stands for dose-corrected exposure relative to a reference, in per cent. For orientation: Ki means a dissociation constant, usually derived from enzyme kinetics or from competition with a known ligand. On to `O=C(Nc1ccc(F)cc1)NC1C(=O)N(CC(=O)N2CC3CCC(CC3)C2)c2ccccc2N(c2ccccc2F)C1=O` (racemic), for which the clearance in series [3] stood at 1.68 L/h/kg. The same compound returned a bioavailability in series [4] of 7%. Besides, the inhibition constant (Ki) is 0.000398 µM in [5] and 0.01 µM in series [6].

In general, inhibition in vivo refers to the percentage by which the read-out fell short of the control. A high value points to strong suppression. As for `O=C(Nc1cccc(C2N=NN=N2)c1)NC1C(=O)N(CC(=O)N2CCCC2)c2ccccc2N(c2ccccc2)C1=O` (stereo unspecified), the negative-log KB (pKB) in [1] came to 7.4; in series [2], 10.3. Also, in the series on Rattus norvegicus [7], the inhibition in vivo at 0.1 mg/kg is 79%. Moreover, the inhibition in vivo at 1 mg/kg with Rattus norvegicus [8] worked out at 45%.

In series [4], `O=C(Nc1ccc(F)cc1)N[C@H]1C(=O)N(CC(=O)N2CCCC2)c2ccccc2N(C2CCCCCC2)C1=O` had a bioavailability of 10%. Also, the inhibition constant (Ki) is 0.00158 µM in [5] and 0.0794 µM in [6].

On to `O=C(Nc1ccc(F)cc1)NC1C(=O)N(CC(=O)N2CCCC2)c2ccccc2N(c2ccccc2F)C1=O` (stereo unspecified), for which, in series [3], the clearance was determined as 0.9 L/h/kg. For the same compound, the bioavailability in series [4] was 68%. The pKB in series [1] was 6.8; in series [2] it was 8.6. For the same compound, the Ki is 0.0126 µM in series [5] and 0.0501 µM in series [9]. Also, the results for the inhibition in vivo at 1 mg/kg in the series on Rattus norvegicus [10] and with Rattus norvegicus [11] were 86% and 73%, respectively.

Consider `O=C(Nc1ccccc1)NC1C(=O)N(CC(=O)N2CCCC2)c2ccccc2N(c2ccccc2)C1=O` (stereo unspecified), for which the results for the negative-log KB (pKB) in series [1] and in series [2] were 7.3 and 8.5, respectively.

As to `Cc1cccc(NC(=O)N[C@@H]2N=C(c3ccccc3)c3ccccc3N(C)C2=O)c1`, the pKB in series [1] is 7.7; in series [12], 7.6.

For `O=C(Nc1ccc(F)cc1)N[C@H]1C(=O)N(CC(=O)N2CCCC2)c2ccccc2N(C2CCCCC2)C1=O`, in series [3], the clearance was 2.16 L/h/kg. Also, the bioavailability in [4] came out at 23%. Further, the Ki in series [5] is 0.00251 µM; in series [6], 0.0794 µM. Further, the inhibition in vivo at 0.3 mg/kg was 60% with Rattus norvegicus [13] and 67% in the series with Rattus norvegicus [14].

The values are drawn from ChEMBL document CHEMBL1149918, “Novel 1,5-benzodiazepindione gastrin/CCKB antagonists” (Bioorg Med Chem Lett, 1997).
